Values of other authors, collected in US20050272804A1, “Methods of delaying Alzheimer's disease progression using a beta-amyloid precursor protein inhibitor and a HMG CoA reductase inhibitor” (priority 2004, published 2005).

How the values were obtained:
[1] = rats, i.v. dosing
AChE = biological target: T1, AChE (Rattus norvegicus, UniProt P37136); details: rats, after phenserine administration
T1 construct: from tissue
T1 sequence (P37136 32-614): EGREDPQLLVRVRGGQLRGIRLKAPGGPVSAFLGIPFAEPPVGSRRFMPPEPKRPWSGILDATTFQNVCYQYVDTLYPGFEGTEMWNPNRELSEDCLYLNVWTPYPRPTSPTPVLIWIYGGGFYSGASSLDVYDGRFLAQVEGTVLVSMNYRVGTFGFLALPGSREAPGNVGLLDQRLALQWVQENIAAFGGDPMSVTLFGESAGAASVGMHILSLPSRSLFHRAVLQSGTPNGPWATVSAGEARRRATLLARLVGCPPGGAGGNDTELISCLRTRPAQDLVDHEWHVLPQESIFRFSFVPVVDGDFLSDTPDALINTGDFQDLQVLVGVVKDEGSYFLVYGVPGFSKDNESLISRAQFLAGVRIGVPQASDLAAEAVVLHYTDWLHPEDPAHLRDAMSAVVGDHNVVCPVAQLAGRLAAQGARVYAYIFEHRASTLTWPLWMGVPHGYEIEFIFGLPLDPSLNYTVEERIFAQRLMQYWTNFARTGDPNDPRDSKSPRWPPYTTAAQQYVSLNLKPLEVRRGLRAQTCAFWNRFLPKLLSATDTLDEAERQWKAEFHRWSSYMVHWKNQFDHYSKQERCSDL

[2] = system: brain extracellular acetylcholine (ACh); details: striatal microdialysis, conscious freely-moving rats
Aβ = details: Tg mice, 2.5 mg/kg, i.p.
NOS = details: Tg mice, 2.5 mg/kg, i.p., brain extracts
neuronal NOS (nNOS) = details: Tg mice, 2.5 mg/kg, i.p., brain extracts

CN1CC[C@@]2(C)c3cc(OC(=O)Nc4ccccc4)ccc3N(C)C12 (single isomer, unassigned) [phenserine]
brain drug levels relative to plasma [1]: 10 fold | time to peak drug level ([1]; brain and plasma): ≤ 5 min | half-life of AChE inhibition (AChE): > 8.25 h | inhibition of AChE (AChE): > 70% | rise in brain ACh levels [2]: greater than 3 fold | lowering of brain Aβ levels (Aβ): approximately 50% | NOS activity, treated vs control Tg groups (NOS): no significant difference | levels of nNOS protein (neuronal NOS (nNOS)): increased

CN1CC[C@]2(C)c3cc(OC(=O)Nc4ccccc4)ccc3N(C)C12 (single isomer, unassigned; (+)) [(+)-Penserine]
anticholinesterase activity (cholinesterase): minimal
